These results are taken from US12122778B2, “Activating pyruvate kinase R” (Novo Nordisk Health Care AG, priority 2018, dated 2024).

For one assay, the target named is PKR(G332S) (Homo sapiens, UniProt P30613, G332S). Description: Luminescence Biochemical Assay (Kinase Glo Plus), PKR G332S mutant. The following applies: with FBP; for activation at 1.54 µM: 1.54 μM compound, read-out: AC50 LUM KGP FBP % Fold@1.54 μM mean; for AC50: read-out: AC50 LUM KGP FBP AC50 μM gmean (column A); for Emax: read-out: AC50 LUM KGP FBP MAX % FOLD mean. As for the experimental part:
In some embodiments, a PKR Activating Compound can have: (1) an AC50 value of less than 0.1 μM (e.g., compounds with AC50 values of “+++” in Table 13), 0.1-1.0 μM (e.g., compounds with AC50 values of “++” in Table 13), or 1.01-40 μM (e.g., compounds with AC50 values of “+” in Table 13); (2) a MAX % Fold of 75%-250%, 250-500%, or 75%-500%; and/or (3) a % Fold@1.54 μM of 75%-250%, 250-500%, or 75%-500%. In some embodiments, a PKR Activating Compound has (1) an AC50 value of less than 1.0 μM; (2) a MAX % Fold of 75%-500%; and/or (3) a % Fold@1.54 μM of 75%-500%.
The phosphorylation of Adenosine-5′-diphosphate (ADP) by various mutants of PKR was determined by the Kinase Glo Plus Assay (Promega) in the presence or absence of FBP [D-Fructose-1,6-diphosphate; BOC Sciences, CAS: 81028-91-3] as follows. Unless otherwise indicated, all reagents were purchased from Sigma-Aldrich. All reagents were prepared in buffer containing 50 mM Tris-HCl, 100 mM KCl, 5 mM MgCl2, and 0.01% Triton X100, 0.03% BSA, and 1 mM DTT. Enzyme and PEP [Phospho(enol) pyruvic acid] were added at 2× to all wells of an assay-ready plate containing serial dilutions of test compounds or DMSO vehicle. Final enzyme concentrations for PKR(wt), PKR(R510Q), and PKR(G332S) were 0.8 nM, 0.8 nM, and 10 nM respectively. Final PEP concentration was 100 μM. The Enzyme/PEP mixture was incubated with compounds for 30 minutes at RT before the assay was initiated with the addition of 2×ADP [Adenosine-5′-diphosphate] and KinaseGloPlus. Final concentration of ADP was 100 μM. […] For assays containing FBP, that reagent is added at 30 μM upon reaction initiation. Reactions were allowed to progress for 45 minutes at RT until luminescence was recorded by the BMG PHERAstar FS Multilabel Reader. All compounds were tested in triplicate at concentrations ranging from 42.5 μM to 2.2 nM in 0.83% DMSO.
Luminescence values were converted to % Fold increase by normalizing to the average of the DMSO control and multiplying by 100. Max, min, slope and AC50 were determined by the standard four parameter fit algorithm of ActivityBase XE Runner. Compounds were evaluated with three parameters—AC50, MAX % Fold, and % Fold@1.54 μM (FIG. 1). The AC50 value for a compound is the concentration (μM) corresponding to the midway between the maximum and minimum values of the four parameter logistic curve fit (i.e., at which the % fold increase along the four parameter logistic curve fit is halfway between MAX % Fold and MIN % Fold (% Fold Midpoint)), MAX % Fold is the highest fold increase observed at any concentration of compound, and % Fold@1.54 μM is the fold increase at a compound concentration of 1.54 μM. The parameter % Fold@1.54 μM was selected to capture elements of both the AC50 and MAX % Fold and to provide a ranking based on both potency and effect. The compound concentration of 1.54 μM was chosen as one that can optimally differentiate the set of compounds based on the range of activities observed.
As set forth in Table 13 below, AC50 values (columns A, D, G) are defined as follows: ≤0.1 μM (+++); >0.1 μM and ≤1.0 μM (++); >1.0 μM and ≤40 μM (+); >40 μM (0). Max % FOLD values (columns B, E, H) are defined as follows: ≤75% (+); >75% and ≤250% (++); >250% and ≤500% (+++). % Fold@1.54 μM values (columns C, F, J) are defined as follows: ≤75% (+); >75% and ≤250% (++); >250% and ≤50000 (+++).
In general terms: Kinase-Glo reads ATP consumption through a luciferase reaction.

For another assay, the target named is PKR(R510Q) (Homo sapiens, UniProt P30613, R510Q). Description: Luminescence Biochemical Assay (Kinase Glo Plus), PKR R510Q mutant. To be noted: without FBP; for activation at 1.54 µM: 1.54 μM compound, read-out: AC50 LUM KGP woFBP % Fold@1.54 μM mean; for AC50: read-out: AC50 LUM KGP woFBP AC50 μM gmean; for Emax: read-out: AC50 LUM KGP woFBP MAX % FOLD mean.
The next assay addresses PKR(wt) (Homo sapiens, UniProt P30613). Description: Luminescence Biochemical Assay (Kinase Glo Plus), wild type PKR. The following applies: without FBP; for activation at 1.54 µM: 1.54 μM compound, read-out: AC50 LUM KGP woFBP % Fold@1.54 μM mean; for AC50: read-out: AC50 LUM KGP woFBP AC50 μM gmean; for Emax: read-out: AC50 LUM KGP woFBP MAX % FOLD mean.

As usually defined, the AC50 is the midpoint of the concentration-response curve, whichever way the signal moves.

Chain of PKR(R510Q) (P30613 whole entry R510Q): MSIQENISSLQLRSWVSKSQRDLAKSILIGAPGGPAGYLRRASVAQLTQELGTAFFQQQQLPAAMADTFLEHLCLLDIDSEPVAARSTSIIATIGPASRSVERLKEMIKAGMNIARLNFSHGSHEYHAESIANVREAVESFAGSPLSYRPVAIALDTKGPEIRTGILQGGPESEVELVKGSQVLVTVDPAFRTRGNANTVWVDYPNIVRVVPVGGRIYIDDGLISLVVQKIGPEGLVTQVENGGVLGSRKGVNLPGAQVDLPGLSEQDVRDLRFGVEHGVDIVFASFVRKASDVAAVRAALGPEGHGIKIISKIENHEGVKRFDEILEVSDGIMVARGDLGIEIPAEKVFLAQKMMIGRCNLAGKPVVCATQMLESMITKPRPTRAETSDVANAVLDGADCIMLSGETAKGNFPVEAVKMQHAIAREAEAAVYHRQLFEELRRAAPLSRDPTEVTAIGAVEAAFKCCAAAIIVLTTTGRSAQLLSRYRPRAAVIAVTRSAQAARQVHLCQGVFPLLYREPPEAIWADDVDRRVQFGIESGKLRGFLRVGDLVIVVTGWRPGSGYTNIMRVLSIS
Chain of PKR(G332S) (P30613 whole entry G332S): as the sequence (P30613 whole entry R510Q) above, with G332S, Q510R counted along it
Chain of PKR(wt) (P30613 whole entry): as the sequence (P30613 whole entry R510Q) above, with Q510R counted along it

In the case of `O=C(OCC1CCOC1)N1CC2=C(C1)CN(S(=O)(=O)c1ccc(OC(F)F)cc1)C2` (stereo not drawn) [Example 22-3, Oxolan-3-ylmethyl 5-[4-(difluoromethoxy)benzenesulfonyl]-1H,2H,3H,4H,5H,6H-pyrrolo[3,4-c]pyrrole-2-carboxylate], the activation at 1.54 µM at PKR(G332S), on PKR(R510Q) and at PKR(wt) was 75 to 250% each time. Further, the half-maximal activity concentration (AC50) on PKR(G332S), on PKR(R510Q) and at PKR(wt) was 1 to 40 µM throughout. In addition, the Emax on PKR(G332S), at PKR(R510Q) and on PKR(wt) was 75 to 250% throughout.
As to `O=C(NCc1cccnc1)N1CC2=C(C1)CN(S(=O)(=O)c1ccc3ncsc3c1)C2` [Example 20-56, 5-(1,3-Benzothiazole-6-sulfonyl)-N-(pyridin-3-ylmethyl)-1H,2H,3H,4H,5H,6H-pyrrolo[3,4-c]pyrrole-2-carboxamide], on PKR(G332S), the activation at 1.54 µM was 75 to 250%, the half-maximal activity concentration (AC50) was 0.1 to 1 µM and the Emax is 75 to 250%. In addition, on PKR(R510Q), the activation at 1.54 µM was in the range of 75 to 250%, the AC50 was in the range of 1 to 40 µM and the Emax lay within 250 to 500%. For the same molecule, on PKR(wt), the activation at 1.54 µM was 75 to 250%, the concentration at half-maximal activity (AC50) lay within 1 to 40 µM and the Emax lay within 250 to 500%.
As for `Cc1cc(COC(=O)N2CC3=C(C2)CN(S(=O)(=O)c2ccc(OC(F)F)cc2)C3)no1` [Example 22-5, (5-Methyl-1,2-oxazol-3-yl)methyl-5-[4-(difluoromethoxy)benzenesulfonyl]-1H,2H,3H,4H,5H,6H-pyrrolo[3,4-c]pyrrole-2-carboxylate], on PKR(G332S), the activation at 1.54 µM is 75 to 250%, the concentration at half-maximal activity (AC50) was in the range of 0.1 to 1 µM and the Emax lay within 75 to 250%. For the same molecule, on PKR(R510Q), the activation at 1.54 µM fell in the range of 250 to 50000%, the concentration at half-maximal activity (AC50) lay within 0.1 to 1 µM and the Emax lay within 250 to 500%. Also, on PKR(wt), the activation at 1.54 µM was in the range of 250 to 50000%, the AC50 lay within 0.1 to 1 µM and the Emax was in the range of 250 to 500%.
With `O=C(Cc1ccc(F)cc1F)N1CC2=C(C1)CN(S(=O)(=O)c1ccccn1)C2` [Example 18-67, 2-(2,4-Difluorophenyl)-1-[5-(pyridine-2-sulfonyl)-1H,2H,3H,4H,5H,6H-pyrrolo[3,4-c]pyrrol-2-yl]ethan-1-one], the activation at 1.54 µM on PKR(G332S), at PKR(R510Q) and at PKR(wt) was 75 to 250% in each case. Besides, the AC50 is 0.1 to 1 µM at PKR(G332S), 1 to 40 µM on PKR(R510Q) and 1 to 40 µM at PKR(wt). Further, the Emax on PKR(G332S) was in the range of 75 to 250%; on PKR(R510Q) it was 250 to 500%; at PKR(wt), 250 to 500%.
For `O=C([C@H](O)c1ccccc1)N1CC2=C(C1)CN(S(=O)(=O)c1cccc(C(F)(F)F)n1)C2` [Example 9-3, (2R)-2-hydroxy-2-phenyl-1-[5-[6-(trifluoromethyl)pyridine-2-sulfonyl]-1H,2H,3H,4H,5H,6H-pyrrolo[3,4-c]pyrrol-2-yl]ethan-1-one], on PKR(G332S), the activation at 1.54 µM was in the range of 75 to 250%, the AC50 lay within 1 to 40 µM and the Emax lay in the range of 75 to 250%. Also, at PKR(R510Q), the activation at 1.54 µM lay within 75 to 250%, the AC50 was in the range of 1 to 40 µM and the Emax fell in the range of 250 to 500%. Also, at PKR(wt), the activation at 1.54 µM is 75 to 250%, the AC50 lay within 0.1 to 1 µM and the Emax lay in the range of 75 to 250%.
As for `O=C(Cc1ncccn1)N1CC2=C(C1)CN(S(=O)(=O)c1ccc(OC(F)F)cc1)C2` [Example 18-28, 1-{5-[4-(Difluoromethoxy)benzenesulfonyl]-1H,2H,3H,4H,5H,6H-pyrrolo[3,4-c]pyrrol-2-yl}-2-(pyrimidin-2-yl)ethan-1-one], on PKR(G332S), the activation at 1.54 µM was in the range of 75 to 250%, the half-maximal activity concentration (AC50) was in the range of 0.1 to 1 µM and the Emax fell in the range of 75 to 250%. In addition, on PKR(R510Q), the activation at 1.54 µM was in the range of 250 to 50000%, the half-maximal activity concentration (AC50) fell in the range of 1 to 40 µM and the Emax fell in the range of 250 to 500%. Further, on PKR(wt), the activation at 1.54 µM lay in the range of 250 to 50000%, the AC50 lay within 1 to 40 µM and the Emax fell in the range of 250 to 500%.
`Cc1cc(CNC(=O)N2CC3=C(C2)CN(S(=O)(=O)c2ccc4ncsc4c2)C3)no1` [Example 21-8, 5-(1,3-Benzothiazole-6-sulfonyl)-N-[(5-methyl-1,2-oxazol-3-yl)methyl]-1H,2H,3H,4H,5H,6H-pyrrolo[3,4-c]pyrrole-2-carboxamide]: on PKR(G332S), the activation at 1.54 µM is 75 to 250%, the AC50 was not above 0.1 µM and the Emax lay within 75 to 250%. In addition, at PKR(R510Q), the activation at 1.54 µM was 250 to 50000%, the concentration at half-maximal activity (AC50) is not above 0.1 µM and the Emax lay in the range of 250 to 500%.
`COc1ccccc1CNC(=O)N1CC2=C(C1)CN(S(=O)(=O)c1cccc3nonc13)C2` [Example 20-19, 5-(2,1,3-Benzoxadiazole-4-sulfonyl)-N-[(2-methoxyphenyl)methyl]-1H,2H,3H,4H,5H,6H-pyrrolo[3,4-c]pyrrole-2-carboxamide]: on PKR(G332S), the activation at 1.54 µM lay within 75 to 250%, the concentration at half-maximal activity (AC50) lay within 1 to 40 µM and the Emax lay in the range of 75 to 250%. Moreover, on PKR(R510Q), the activation at 1.54 µM lay within 75 to 250%, the AC50 fell in the range of 0.1 to 1 µM and the Emax lay within 250 to 500%.
Regarding `Cc1nc(S(=O)(=O)N2CC3=C(CN(C(=O)C(C)n4cnc5ccccc54)C3)C2)cn1C` (stereo not drawn) [Example 19-9, 2-(1H-Benzo[d]imidazol-1-yl)-1-(5-((1,2-dimethyl-1H-imidazol-4-yl)sulfonyl)-3,4,5,6-tetrahydropyrrolo[3,4-c]pyrrol-2(1H)-yl)propan-1-one], at PKR(G332S), the activation at 1.54 µM was 75 to 250%, the AC50 is 0.1 to 1 µM and the Emax was in the range of 75 to 250%. Besides, on PKR(R510Q), the activation at 1.54 µM fell in the range of 75 to 250%, the AC50 was 1 to 40 µM and the Emax fell in the range of 75 to 250%.
As to `COc1ccccc1CNC(=O)N1CC2=C(C1)CN(S(=O)(=O)c1ccc(F)cc1)C2` [Example 20-6, 5-(4-Fluorobenzenesulfonyl)-N-[(2-methoxyphenyl)methyl]-1H,2H,3H,4H,5H,6H-pyrrolo[3,4-c]pyrrole-2-carboxamide], at PKR(G332S), the activation at 1.54 µM lay within 75 to 250%, the AC50 was not above 0.1 µM and the Emax was 75 to 250%. At PKR(R510Q), the activation at 1.54 µM is 75 to 250%, the AC50 was 0.1 to 1 µM and the Emax lay within 250 to 500%.
Consider `CN1CCOc2ccc(S(=O)(=O)N3CC4=C(CN(C(=O)NCc5ccc(F)cc5)C4)C3)cc21` [Example 21-26, N-[(4-fluorophenyl)methyl]-5-[(4-methyl-3,4-dihydro-2H-1,4-benzoxazin-6-yl)sulfonyl]-1H,2H,3H,4H,5H,6H-pyrrolo[3,4-c]pyrrole-2-carboxamide], for which, at PKR(G332S), the activation at 1.54 µM was in the range of 75 to 250%, the concentration at half-maximal activity (AC50) lay within 1 to 40 µM and the Emax was in the range of 75 to 250%. At PKR(R510Q), the activation at 1.54 µM was 75 to 250%, the AC50 was 0.1 to 1 µM and the Emax fell in the range of 75 to 250%.
